Source: patent US8173654B2, “Triazolopyridazine compounds” (Janssen Pharmaceutica N.V., priority 2005, dated 2012)

Assays:
c-Met = c-Met (Homo sapiens, UniProt P08581); assay: Cell based ELISA assay for HGF stimulated c-Met phosphorylation in S114 cells; design: expressed in transfected cells; host or cells: S114 (murine NIH 3T3 derived); conditions: read-out: c-Met Cell ELISA IC-50
HepG2 cells = assay: HepG2 cellular scatter assay (HGF-induced, RT-CES impedance); type: cell-based; conditions: Homo sapiens, 40 ng/ml HGF
Text: Human Growth Factor (HGF) and its receptor (c-Met) are involved in cellular motility. Indeed HGF was also identified as Scatter Factor (SF), based on its powerful motility effect on certain cell types. Cellular motility is critical for pathological processes of oncologic disease, most importantly, the establishment of metastatic lesions distant from the primary tumor and formation of new blood vessels (angiogenesis). One therapeutic hypothesis is that this movement of cell types may be blunted or eliminated by the use of c-Met kinase inhibitors. (See: Jiang, W. C, Martin, T. A., Parr, C., Davies, G., Matsumoto, K. and Nakamura, T. Critical Reviews in Oncology/Hematology 53 (2005) 35-69. and references cited therein.) It should also be noted that cellular motility, especially with regard to angiogenesis, is important in other disease states.
Cellular scatter was measured with a Real-Time Cell Electronic Sensing system (RT-CES), from ACEA Biosciences Inc. (San Diego, Calif.). The RT-CES system uses specialized RT-ACE microtiter plates (cat:RCD96, ACEA Biosciences Inc.) to non-invasively quantify cellular status in real-time. The interaction of cells with the surface of the plates, which are integrated with microelectronic sensor arrays, leads to the generation of a cell-electrode impedance response. A higher impedance value indicates more cell attachment and thus less cellular scatter.
50 μl of Assay Media (MEM supplemented with 10% FBS, 2 mM L-glutamine, 1.5 g/L sodium bicarbonate, 1 mM sodium pyruvate, and 0.1 mM non-essential amino acids) was added into 96-well RT-ACE plates and recorded for 30 min on the RT-CES. 50 μl of HepG2 cells (cat: HB-8065, ATCC) were added into each well ([…]). The plate was read in RT-CES and incubated for 20-24 hours. After the 20-24 hours incubation, 50 μl of Assay Media containing different concentrations of testing compounds was added into each well and incubated for 1 hour. Finally, 50 μl of Assay Media containing 160 ng/ml of HGF was added into each well (40 ng/ml in 200 μl). The plate was incubated and read in the RT-CES for 20-24 hours, with a record time every 15 minutes. The positive control was HGF without compounds and negative control was no-HGF without compound. All determinations were performed in duplicate wells and IC50 values were calculated using GraphPad Prism software (GraphPad Software; San Diego, Calif.).

c-Met, sequence (P08581 25-1390): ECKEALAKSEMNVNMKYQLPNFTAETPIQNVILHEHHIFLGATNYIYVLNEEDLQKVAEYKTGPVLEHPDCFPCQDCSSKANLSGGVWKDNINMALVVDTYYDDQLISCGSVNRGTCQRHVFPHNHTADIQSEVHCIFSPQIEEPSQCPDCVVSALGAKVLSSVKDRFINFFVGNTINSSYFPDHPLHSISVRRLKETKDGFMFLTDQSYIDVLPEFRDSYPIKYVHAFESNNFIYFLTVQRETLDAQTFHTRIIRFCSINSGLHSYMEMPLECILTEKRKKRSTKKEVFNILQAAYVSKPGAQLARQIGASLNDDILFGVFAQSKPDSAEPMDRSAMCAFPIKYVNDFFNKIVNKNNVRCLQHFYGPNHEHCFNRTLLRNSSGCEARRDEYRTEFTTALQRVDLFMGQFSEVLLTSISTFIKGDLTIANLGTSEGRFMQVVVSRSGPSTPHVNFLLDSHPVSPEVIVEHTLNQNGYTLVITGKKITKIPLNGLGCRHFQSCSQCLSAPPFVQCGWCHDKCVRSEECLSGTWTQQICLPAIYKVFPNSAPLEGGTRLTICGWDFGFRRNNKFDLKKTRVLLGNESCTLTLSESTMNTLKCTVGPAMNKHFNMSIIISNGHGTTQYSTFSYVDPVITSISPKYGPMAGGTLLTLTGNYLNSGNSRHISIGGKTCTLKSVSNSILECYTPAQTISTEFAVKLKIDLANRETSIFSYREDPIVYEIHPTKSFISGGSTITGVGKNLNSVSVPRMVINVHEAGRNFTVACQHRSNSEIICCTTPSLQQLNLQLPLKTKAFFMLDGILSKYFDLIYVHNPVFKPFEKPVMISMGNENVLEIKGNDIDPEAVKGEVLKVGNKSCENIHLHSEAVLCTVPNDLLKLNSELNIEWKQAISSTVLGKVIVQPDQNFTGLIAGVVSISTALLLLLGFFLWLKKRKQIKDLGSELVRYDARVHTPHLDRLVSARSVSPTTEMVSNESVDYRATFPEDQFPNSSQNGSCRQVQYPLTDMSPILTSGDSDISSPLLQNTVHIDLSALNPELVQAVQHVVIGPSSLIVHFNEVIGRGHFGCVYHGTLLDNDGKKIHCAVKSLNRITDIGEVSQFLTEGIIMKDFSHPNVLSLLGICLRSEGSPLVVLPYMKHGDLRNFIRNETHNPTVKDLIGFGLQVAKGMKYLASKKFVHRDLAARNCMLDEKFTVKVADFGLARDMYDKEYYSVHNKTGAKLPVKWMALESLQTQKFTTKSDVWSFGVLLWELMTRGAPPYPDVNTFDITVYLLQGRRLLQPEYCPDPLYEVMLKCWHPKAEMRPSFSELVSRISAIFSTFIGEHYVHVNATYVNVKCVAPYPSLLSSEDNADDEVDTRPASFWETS

IC50 (c-Met): 2 nM
IC50 (HepG2 cells): 106 nM
SMILES: Cn1cc(-c2ccc3nnc(C(F)(F)c4ccc5ncccc5c4)n3n2)cn1 [Example 61, 6-{Difluoro-[6-(1-methyl-1H-pyrazol-4-yl)-[1,2,4]triazolo[4,3-b]pyridazin-3-yl]-methyl}-quinoline]
